Results from ChEMBL document CHEMBL2331362, “Identification of N-acyl 4-(5-pyrimidine-2,4-dionyl)phenylalanine derivatives and their orally active prodrug esters as dual-acting alpha4-beta1 and alpha4-beta7 receptor antagonists” (Bioorg Med Chem Lett, 2013).

Assays:
[1] = Oral bioavailability in rat; format: ADME, organism-based; conditions: in vivo
[2] = Apparent permeability across human Caco2 cells; format: ADME, cell-based; conditions: Caco-2
[3] = Distribution coefficient, log D of the compound; format: physicochemical; conditions: octanol/water
Integrin alpha-4/beta-7 = molecular target: T1, Integrin alpha-4/beta-7 (Homo sapiens, UniProt P13612+P26010); assay: Inhibition of human MAdCAM1 binding to integrin alpha4beta7 receptor in human RPMI 8866 cells labeled with Calcein AM; format: cell-based
T1 sequence (P13612 whole entry): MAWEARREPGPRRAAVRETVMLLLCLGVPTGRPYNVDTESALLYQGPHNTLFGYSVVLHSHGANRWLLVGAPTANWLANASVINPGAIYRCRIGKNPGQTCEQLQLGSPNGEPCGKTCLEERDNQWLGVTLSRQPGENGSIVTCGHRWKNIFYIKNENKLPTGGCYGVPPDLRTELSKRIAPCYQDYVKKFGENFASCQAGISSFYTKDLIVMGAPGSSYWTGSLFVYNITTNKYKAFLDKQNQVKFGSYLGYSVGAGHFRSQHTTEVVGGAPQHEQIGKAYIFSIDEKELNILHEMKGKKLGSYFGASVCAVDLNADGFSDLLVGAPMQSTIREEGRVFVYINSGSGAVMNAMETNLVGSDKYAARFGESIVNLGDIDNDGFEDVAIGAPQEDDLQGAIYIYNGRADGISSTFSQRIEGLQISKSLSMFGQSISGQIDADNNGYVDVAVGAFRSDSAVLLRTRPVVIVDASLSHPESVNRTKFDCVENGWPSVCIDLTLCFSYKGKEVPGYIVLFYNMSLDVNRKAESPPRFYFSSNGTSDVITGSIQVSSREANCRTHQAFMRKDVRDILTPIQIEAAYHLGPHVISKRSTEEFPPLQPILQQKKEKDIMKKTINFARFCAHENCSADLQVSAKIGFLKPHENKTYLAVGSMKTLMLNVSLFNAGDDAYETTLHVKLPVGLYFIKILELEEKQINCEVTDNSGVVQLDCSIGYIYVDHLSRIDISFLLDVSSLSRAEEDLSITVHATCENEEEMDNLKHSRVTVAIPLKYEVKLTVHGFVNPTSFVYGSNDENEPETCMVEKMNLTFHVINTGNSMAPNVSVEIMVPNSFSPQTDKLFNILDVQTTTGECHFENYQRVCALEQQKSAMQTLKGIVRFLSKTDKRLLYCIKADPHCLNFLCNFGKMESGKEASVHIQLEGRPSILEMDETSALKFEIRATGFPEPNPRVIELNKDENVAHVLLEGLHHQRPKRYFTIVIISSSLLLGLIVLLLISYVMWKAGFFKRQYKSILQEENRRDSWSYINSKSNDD
T1 sequence (P26010 whole entry): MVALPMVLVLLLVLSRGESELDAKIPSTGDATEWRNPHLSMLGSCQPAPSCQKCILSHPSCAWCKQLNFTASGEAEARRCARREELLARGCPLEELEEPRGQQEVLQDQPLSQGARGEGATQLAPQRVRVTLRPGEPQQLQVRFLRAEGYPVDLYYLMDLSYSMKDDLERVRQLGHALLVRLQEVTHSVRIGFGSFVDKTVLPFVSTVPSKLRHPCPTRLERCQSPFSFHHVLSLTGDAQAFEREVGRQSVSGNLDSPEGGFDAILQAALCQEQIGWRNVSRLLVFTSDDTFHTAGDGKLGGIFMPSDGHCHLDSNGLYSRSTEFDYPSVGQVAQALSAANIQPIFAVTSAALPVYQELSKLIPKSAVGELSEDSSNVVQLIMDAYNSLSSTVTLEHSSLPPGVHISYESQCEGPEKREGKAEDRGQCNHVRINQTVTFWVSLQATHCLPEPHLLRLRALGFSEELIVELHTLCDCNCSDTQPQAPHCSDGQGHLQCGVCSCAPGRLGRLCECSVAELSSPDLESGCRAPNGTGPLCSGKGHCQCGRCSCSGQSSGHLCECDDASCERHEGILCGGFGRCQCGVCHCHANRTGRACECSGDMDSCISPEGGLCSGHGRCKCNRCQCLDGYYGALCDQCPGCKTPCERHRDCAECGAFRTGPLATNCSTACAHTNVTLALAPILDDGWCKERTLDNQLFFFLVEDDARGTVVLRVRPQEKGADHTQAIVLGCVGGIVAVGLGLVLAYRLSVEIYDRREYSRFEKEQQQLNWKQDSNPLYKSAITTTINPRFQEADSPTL

[4] = molecular target: Integrin alpha-4/beta-7 (Homo sapiens) (UniProt P13612+P26010); assay: Inhibition of human MAdCAM1 binding to integrin alpha4beta7 receptor in human RPMI 8866 cells labeled with Calcein AM relative to (S)-2-(2-chloro-6-methylbenzamido)-3-(4-(2,6-dichlorobenzamido)phenyl)propanoic acid; format: cell-based
Integrin alpha-4/beta-1 [5] = molecular target: T2, Integrin alpha-4/beta-1 (Homo sapiens, UniProt P05556+P13612); assay: Inhibition of human VCAM1 binding to integrin alpha4beta1 receptor in human Ramos cells labeled with Calcein AM; format: cell-based
Integrin alpha-4/beta-1 [6] = molecular target: T2, Integrin alpha-4/beta-1; assay: Inhibition of human VCAM1 binding to integrin alpha4beta1 receptor in human Ramos cells labeled with Calcein AM relative to (S)-2-(2-chloro-6-methylbenzamido)-3-(4-(2,6-dichlorobenzamido)phenyl)propanoic acid; format: cell-based

T2 sequence (P05556 whole entry, one chain of several): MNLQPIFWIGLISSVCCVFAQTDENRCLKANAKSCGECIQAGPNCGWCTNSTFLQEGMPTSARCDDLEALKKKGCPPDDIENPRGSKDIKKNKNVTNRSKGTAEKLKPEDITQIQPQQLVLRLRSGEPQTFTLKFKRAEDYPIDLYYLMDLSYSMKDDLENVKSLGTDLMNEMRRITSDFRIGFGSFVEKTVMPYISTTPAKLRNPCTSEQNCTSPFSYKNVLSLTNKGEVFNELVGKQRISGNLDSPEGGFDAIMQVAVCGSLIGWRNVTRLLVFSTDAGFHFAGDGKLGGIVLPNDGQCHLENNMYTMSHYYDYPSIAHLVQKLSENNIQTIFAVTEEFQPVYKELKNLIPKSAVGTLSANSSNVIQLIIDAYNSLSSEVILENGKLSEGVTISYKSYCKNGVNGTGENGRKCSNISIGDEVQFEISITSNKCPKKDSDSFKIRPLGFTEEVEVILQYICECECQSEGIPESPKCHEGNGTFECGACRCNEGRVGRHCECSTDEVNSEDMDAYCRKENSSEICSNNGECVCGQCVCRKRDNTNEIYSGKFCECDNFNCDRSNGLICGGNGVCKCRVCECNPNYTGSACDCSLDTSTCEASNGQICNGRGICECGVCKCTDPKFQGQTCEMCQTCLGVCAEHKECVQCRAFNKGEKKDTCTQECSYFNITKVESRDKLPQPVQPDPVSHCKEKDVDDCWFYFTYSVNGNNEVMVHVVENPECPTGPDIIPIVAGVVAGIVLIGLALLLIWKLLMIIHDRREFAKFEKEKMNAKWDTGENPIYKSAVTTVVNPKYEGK

Row | Compound | bioavailability [1] [%] | Papp [2] [×10⁻⁶ cm/s] | logD [3] | IC50 (Integrin alpha-4/beta-7) [nM] | Ratio IC50 [4] | IC50 (Integrin alpha-4/beta-1 [5]) [nM] | Ratio IC50 (Integrin alpha-4/beta-1 [6])
1 | CC(=O)OC(C)OC(=O)[C@H](Cc1ccc(-c2c(C)n(C)c(=O)n(C)c2=O)cc1)NC(=O)c1c(F)cccc1F (some centres undefined) | 30 | 12 | 1.61 | – | – | – | –
2 | CCn1c(C)c(-c2ccc(C[C@H](NC(=O)C3(CCOC)CCCC3)C(=O)O)cc2)c(=O)n(CC)c1=O | – | – | – | 565 | 0.46 | 382 | 0.29
3 | Cc1cc(C[C@H](NC(=O)c2c(C)cccc2Cl)C(=O)O)ccc1-c1c(C)n(C)c(=O)n(C)c1=O | – | – | – | 254 | 1 | 246 | 0.14
4 | COCCC1(C(=O)N[C@@H](Cc2ccc(-c3cn(C)c(=O)n(C)c3=O)c(C)c2)C(=O)O)CCCC1 | – | – | – | – | – | 64 | 0.8
5 | COc1cccc(Br)c1C(=O)N[C@@H](Cc1ccc(-c2cn(C)c(=O)n(C)c2=O)c(C)c1)C(=O)O | – | – | – | – | – | 255 | 0.35
6 | Cc1c(-c2ccc(C[C@H](NC(=O)c3c(Cl)cccc3C(C)C)C(=O)O)cc2)c(=O)n(C)c(=O)n1C | – | – | – | 558 | 1 | 215 | 0.13
7 | Cc1cccc(Cl)c1C(=O)N[C@@H](Cc1ccc(-c2c(C(F)(F)F)n(C)c(=O)n(C)c2=O)cc1)C(=O)O | – | – | – | 167 | 2.4 | 123 | 0.1
8 | CCOC(=O)[C@H](Cc1ccc(-c2c(C)n(C)c(=O)n(C)c2=O)cc1)NC(=O)c1c(C)cccc1Cl | 25 | 34.7 | 2.24 | – | – | – | –
9 | CCOC(=O)[C@H](Cc1ccc(-c2c(C)n(C)c(=O)n(C)c2=O)cc1)NC(=O)c1c(Cl)cccc1Cl | 6 | 18.3 | 2.01 | – | – | – | –
10 | Cc1cc(C[C@H](NC(=O)c2c(C)cccc2Cl)C(=O)O)ccc1-c1cn(C)c(=O)n(C)c1=O | – | – | – | – | – | 81 | 1
11 | CCn1c(C)c(-c2ccc(C[C@H](NC(=O)c3c(C)cccc3Cl)C(=O)O)cc2)c(=O)n(CC)c1=O | – | – | – | 164 | 1.7 | 296 | 0.37
12 | Cn1c(C(F)(F)F)c(-c2ccc(C[C@H](NC(=O)c3c(Cl)cccc3Cl)C(=O)O)cc2)c(=O)n(C)c1=O | – | – | – | 219 | 1.3 | 196 | 0.46
13 | Cc1c(-c2ccc(C[C@H](NC(=O)c3c(C(C)C)cccc3C(C)C)C(=O)O)cc2)c(=O)n(C)c(=O)n1C | – | – | – | 1970 | 0.15 | 1450 | 0.04
14 | COCCC1(C(=O)N[C@@H](Cc2ccc(-c3c(C)n(C)c(=O)n(C)c3=O)cc2)C(=O)O)CCCC1 | – | – | – | 324 | 1 | 287 | 0.49
15 | CCc1cccc(Cl)c1C(=O)N[C@@H](Cc1ccc(-c2c(C)n(C)c(=O)n(C)c2=O)cc1)C(=O)O | – | – | – | 151 | 2.3 | 87 | 0.53

Next, values leading:

Row | bioavailability [1] [%] | Papp [2] [×10⁻⁶ cm/s] | logD [3] | IC50 (Integrin alpha-4/beta-7) [nM] | Ratio IC50 [4] | IC50 (Integrin alpha-4/beta-1 [5]) [nM] | Ratio IC50 (Integrin alpha-4/beta-1 [6]) | Compound
16 | 1.7 | 1.33 | -2.02 | 35 | 16 | 8 | 6.3 | Cc1c(-c2ccc(C[C@H](NC(=O)c3c(Cl)cccc3Cl)C(=O)O)cc2)c(=O)n(C)c(=O)n1C
17 | 10 | 2.9 | -1.76 | 58 | 6.1 | 35 | 2.1 | Cc1cccc(Cl)c1C(=O)N[C@@H](Cc1ccc(-c2c(C)n(C)c(=O)n(C)c2=O)cc1)C(=O)O
18 | – | – | – | 220 | 1.9 | 56 | 0.68 | Cc1cc(C[C@H](NC(=O)c2c(Cl)cccc2Cl)C(=O)O)ccc1-c1cn(C)c(=O)n(C)c1=O
19 | – | – | – | 124 | 4.8 | 63 | 0.8 | CCn1c(C)c(-c2ccc(C[C@H](NC(=O)c3c(Cl)cccc3Cl)C(=O)O)cc2)c(=O)n(CC)c1=O
20 | – | – | – | 168 | 3.6 | 10 | 1.1 | Cc1cc(C[C@H](NC(=O)c2c(Cl)cccc2Cl)C(=O)O)ccc1-c1c(C)n(C)c(=O)n(C)c1=O
21 | – | – | – | – | – | 25 | 2 | Cc1cc(C[C@H](NC(=O)c2c(C)cccc2Br)C(=O)O)ccc1-c1cn(C)c(=O)n(C)c1=O
